Where a name gives a salt, the structure may show the parent alone.
How the values were obtained:
AH-13 = test: Antitumor Activity to Transplanted Cancer Cells (AH-13); format: in vivo, Donryu strain female rats; conditions: for Average Survival Terms: control 7.1
Text: As test animals, Donryu strain female rats (8 week old) which were divided into groups of 10 members each were used. Each rat was intraperitoneally administered with test compound, disodium salt of N-2'-carboxyphenyl-4-chloroanthranilic acid, once a day for 10 days from 16 days before the inoculation of the tumor cells disclosed hereinbelow. Sixteen days after the first administration of the test compound, each rat was intraperitoneally inoculated with 10^6 tumor cells identified as AH-13 to induce cancer of abdominal dropsy.

Adjuvant arthritis = test: Activity for Treating Adjuvant Arthritis (hind paw volume); format: in vivo, Sprague Dawley strain male rats
Method: Sprague Dawley strain male rats (eight week old) were used as test animals. […] Seventeen days after the sensitization, degree of swelling of hind pawls of each rat was determined by measuring the volume of its hind paws and the rats were divided into groups of 10 members each so that average degree of swelling for each of the groups was approximately equal. Each group of rats was orally administered with the test compound, disodium salt of N-2'-carboxyphenyl-4-chloroanthranilic acid, in a dose as shown in Table 5 once a day for a week starting on the seventeenth day after the sensitization. Degree of swelling of hind paws of each rat was measured every second or third day after the completion of the administration of the test compound till the 31st day from the sensitization. The reduction in volume of the hind paws was used as an index to evaluate the pharmacological activity.
The results of the statistical test which was made on the values obtained on the 24th and 31st days from the sensitization are shown in Table 5.

[1] = tested on: Pseudomonas aeruginosa Pa-II; test: Activity for Protecting from Infection by Bucillus Pyocyaneous; format: in vivo; conditions: oral 2 mg/head; for Survival Terms: individual animals
Text: As test animals, ddY strain male mice (5 week old) which were divided into groups of 7 members each were used. Each mouse was intraperitoneally inoculated with bucillus pyocyaneous, Pseudomonas aeruginosa Pa-II.

lymphocites [2] = test: Activity for Promoting Blastogenesis of Lymphocites (in vitro); format: cell-based, C3 H/He strain male mice; conditions: 10^-1 to 10^-2 μg/ml
Method: In this Experiment, influence of the test compound disodium salt of N-2'-carboxyphenyl-4-chloroanthranilic acid on blastogenesis of lymphocites was studied by the use of spleen cells and lymphonoid cells of mouse and rat. For in vitro test, C3 H/He strain male mice and for in vivo Wistar-Imamichi strain male rats were used respectively. Concanavallin A manufactured by Sigma was used as the blastogenetic factor in the in vitro test and lymphocites were cultured by the use of medium of RPMI 1640 manufactured by Grand Island Biological Co. The cultivation of the lymphocites was carried out in the medium at 37° C in a 5% carbon dioxide atmosphere for about 48 hours and after the addition of 0.5 μCi/ml of ^3 H-thymidine, the cells in the medium were incubated for 16 hours and then the lymphocites were separated. The radioactivity of the separated cells was measured by a scintillation counter and the value was evaluated as an indicator of blastogenetic degree. For the in vivo test, the in vitro test was repeated except that each rat was orally administered with the test compound in a dose of 5 or 50 mg/kg. In this case, the rats administered with the test compound were divided into groups of 3 members each and the cells to be cultivated from the rats in each group were placed under the same cultivation conditions. […]

lymphocites [3] = test: Activity for Promoting Blastogenesis of Lymphocites (in vivo); design: species or system Wistar-Imamichi strain male rats
Method: In this Experiment, influence of the test compound disodium salt of N-2'-carboxyphenyl-4-chloroanthranilic acid on blastogenesis of lymphocites was studied by the use of spleen cells and lymphonoid cells of mouse and rat. For in vitro test, C3 H/He strain male mice and for in vivo Wistar-Imamichi strain male rats were used respectively. Concanavallin A manufactured by Sigma was used as the blastogenetic factor in the in vitro test and lymphocites were cultured by the use of medium of RPMI 1640 manufactured by Grand Island Biological Co. The cultivation of the lymphocites was carried out in the medium at 37° C in a 5% carbon dioxide atmosphere for about 48 hours and after the addition of 0.5 μCi/ml of ^3 H-thymidine, the cells in the medium were incubated for 16 hours and then the lymphocites were separated. The radioactivity of the separated cells was measured by a scintillation counter and the value was evaluated as an indicator of blastogenetic degree. For the in vivo test, the in vitro test was repeated except that each rat was orally administered with the test compound in a dose of 5 or 50 mg/kg. In this case, the rats administered with the test compound were divided into groups of 3 members each and the cells to be cultivated from the rats in each group were placed under the same cultivation conditions. The results of the experiments are shown in FIG. 4 (in vitro) and FIG. 5 (in vivo), respectively.

triglyceride in liver = test: Action for decreasing triglyceride in liver (ethanol-induced); format: in vivo, Sprague Dawley strain female rats; conditions: rat, oral 100 mg/kg, 30 min before ethanol 6 g/kg; 24 h; 100 mg/kg
Method: Sprague Dawley strain female rats each weighing 170 - 200 g which had been fasted for 15 hours were divided into groups of 4 rats each. The rats were orally administered a different test compound in a dose of 100 mg/kg, and 30 minutes after the administration, orally administered ethanol in a dose of 6 g/kg. Twenty-four hours after the administration of ethanol, the liver of each rat was taken out and neutral lipid level in the liver was measured in a conventional manner to calculate the ratio of preventing an increase in triglyceride content in the liver. For a control group, ethanol and, for the other control group, a glucose aqueous solution equivalent in calorific value to the same amount of ethanol were used and the same manner as those of test groups, and for the positive control group, commercially available 2-mercaptopropionylglycine was used instead of the test compound.
*The % prevention was calculated by the following

Sarcoma-180 = test: growth of Sarcoma-180 tumor cells in vitro; format: cell-based
antibody in blood = test: Titer of antibody in blood of cortisone-treated mice (hemolysing method); format: in vivo, IV CS strain male mice
Method: As test animals, IV CS strain male mice (5 week old) were used by dividing them into groups of 5 members each. Each mouse was intraperitoneally administered with cortisone in a dose of 60 mg/kg once a day for 5 days. Three days after the first administration, the sensitization with an antigen, sheep red blood cell (SRBC), was made by injecting the antigen into the mouse through the tail vein. Each mouse was orally administered with the test compound, disodium salt of N-2'-carboxyphenyl-4-chloroanthranilic acid, a day after the sensitization. Five days after the sensitization, the number of plaque forming cells (PFC) in the spleen was measured in a usual manner.
* Titer of antibody in blood is indicated by a dilution degree of 50%

[4] = tested on: Pseudomonas aeruginosa Pa-II; test: Activity for Protecting from Infection by Bucillus Pyocyaneous, with carbenicillin; format: in vivo; conditions: mouse; with carbenicillin
Method: As test animals, ddY strain male mice (5 week old) which were divided into groups of 9 members each were used. Each mouse was intraperitoneally administered with 10^6 Pseudomonas aeruginosa Pa-II, and 1.5 hours after the administeration, subcutaneously administered one shot of carbenicillin, an antibiotic. The test compound, disodium salt of N-2'-carboxyphenyl-4-chloroanthranilic acid, was orally administered once a day in a dose of 2 mg/head one and two days before the inoculation, respectively. The activity of the test compound was evaluated by observing the test animals for 54 hours after the inoculation.

Q: Which T/C (AH-13; 50 mg/kg i.p.) does the source give for `O=C(O)c1ccccc1Nc1cc(Cl)ccc1C(=O)O` [disodium salt of N-2'-carboxyphenyl-4-chloroanthranilic acid] here?
A: 163%

Q: And the “host-mediated antitumor activity (AH-13)” value (AH-13; 50 mg/kg i.p.)?
A: exhibits host-mediated antitumor activity

Q: What about the “Average Survival Terms” value (AH-13; 50 mg/kg i.p.) of the same molecule?
A: 11.6 days

Q: What about the T/C (AH-13; 100 mg/kg i.p.) of the same molecule?
A: 103%

Q: What about the “Average Survival Terms” value (AH-13; 100 mg/kg i.p.) of the same molecule?
A: 7.3 days

Q: What about the T/C (AH-13; 200 mg/kg i.p.) of the same molecule?
A: 97%

Q: What about the “Average Survival Terms” value (AH-13; 200 mg/kg i.p.) of the same molecule?
A: 6.9 days

Q: What about the “volume of hind paws” value (Adjuvant arthritis; 0.1 mg/kg oral, day 24 after the sensitization) of the same molecule?
A: 3.524 ± 0.170 mL

Q: And the “volume of hind paws” value (Adjuvant arthritis; 0.1 mg/kg oral, day 31 after the sensitization)?
A: 3.762 ± 0.216 mL

Q: And the “volume of hind paws” value (Adjuvant arthritis; 1 mg/kg oral, day 24 after the sensitization)?
A: 3.214 ± 0.161 mL

Q: And the “volume of hind paws” value (Adjuvant arthritis; 1 mg/kg oral, day 31 after the sensitization)?
A: 3.289 ± 0.223 mL

Q: And the “volume of hind paws” value (Adjuvant arthritis; 5 mg/kg oral, day 24 after the sensitization, ** P<0.01)?
A: 3.175 ± 0.100 mL

Q: And the “volume of hind paws” value (Adjuvant arthritis; 5 mg/kg oral, day 31 after the sensitization, * P<0.05)?
A: 3.102 ± 0.141 mL

Q: And the “volume of hind paws” value (Adjuvant arthritis; 10 mg/kg oral, day 24 after the sensitization, ** P<0.01)?
A: 3.027 ± 0.126 mL

Q: What about the “volume of hind paws” value (Adjuvant arthritis; 10 mg/kg oral, day 31 after the sensitization, * P<0.05) of the same molecule?
A: 3.121 ± 0.176 mL

Q: What about the “volume of hind paws” value (Adjuvant arthritis; 100 mg/kg oral, day 24 after the sensitization) of the same molecule?
A: 3.350 ± 0.168 mL

Q: And the “volume of hind paws” value (Adjuvant arthritis; 100 mg/kg oral, day 31 after the sensitization)?
A: 3.482 ± 0.170 mL

Q: What about the “activity for treating adjuvant arthritis of rat” value (Adjuvant arthritis; 5 or 10 mg/kg oral) of the same molecule?
A: significant level of activity

Q: And the “Survival Terms” value ([1]; 2 × 10^4 bacteria/head, mouse, S: survival at 54 hours)?
A: S,S,S,S,S and S,S

Q: And the “Dead Animal/Test Animal” value ([1]; 2 × 10^4 bacteria/head, control 1/7)?
A: 0/7

Q: And the “activity for protecting from the bacterial infection” value ([1]; 2 × 10^5 bacteria per head)?
A: activity of the test compound for protecting from the bacterial infection was observed

Q: And the “Survival Terms” value ([1]; 2 × 10^5 bacteria/head, mouse, S: survival at 54 hours)?
A: S,S

Q: And the “Dead Animal/Test Animal” value ([1]; 2 × 10^5 bacteria/head, control 6/7)?
A: 1/7

Q: What about the “Survival Terms” value ([1]; 2 × 10^6 bacteria/head, mouse) of the same molecule?
A: 29,29 hours

Q: What about the “Dead Animal/Test Animal” value ([1]; 2 × 10^6 bacteria/head, control 7/7) of the same molecule?
A: 7/7

Q: And the “effect on bacillary toxin” value ([1]; mouse)?
A: acts to lower the bacillary toxin

Q: And the “activity of Concanavallin A (blastogenesis of lymphocites)” value (lymphocites [2])?
A: improved the activity of Concanavallin A

Q: And the “degree of promotion (S.I. value) of blastogenesis” value (lymphocites [3]; rat, oral 5 or 50 mg/kg, one day before Concanavallin A)?
A: about twice as large as that of the control

Q: What about the “activity of Concanavallin A” value (lymphocites [3]; rat, oral 5 or 50 mg/kg, one day before Concanavallin A, vs control) of the same molecule?
A: increased to about double

Q: And the “improvement of the activity of Concanavallin A” value (lymphocites [3]; rats or mice, four days before Concanavallin A)?
A: the improvement of the activity was observed

Q: And the “% Prevention (of increase in triglyceride content in the liver)” value (triglyceride in liver)?
A: 63.6%

Q: And the “direct antitumor activity on Sarcoma-180 cells” value (Sarcoma-180; directly on the cells)?
A: no antitumor activity directly on the cells

Q: What about the “growth of Sarcoma-180 cells in vitro” value (Sarcoma-180; in vitro) of the same molecule?
A: does not suppress the growth

Q: What about the “Titer of Antibody (dilution degree of 50% hemolysis)” value (antibody in blood; Cortisone + Test Compound (10 mg/kg)) of the same molecule?
A: 10^10

Q: What about the “Titer of Antibody (dilution degree of 50% hemolysis)” value (antibody in blood; Cortisone + Test Compound (50 mg/kg)) of the same molecule?
A: 10^6

Q: And the “bacteriocidal activity of the antibiotic with the test compound” value [4]?
A: improved bacteriocidal activity
